# Source: patent US5352608A (priority 1992, dated 1994)
# Entries after “also recorded” stand apart in the source; their conditions may differ. Where two headings read alike, the source gives them in different places.
# Experiments:
# [1] = system: Rhodobacter sphaeroides 2.4.1; type: cell-based
# [2] = system: R. sphaeroides 2.4.1; type: cell-based, Rhodobacter sphaeroides
# [3] = system: Rhodopseudomonas palustris 1e5; test: Intrinsic HLR to TeO3^2- (MIC); type: cell-based
# [4] = system: E. coli; settings: exogenously supplied L-methionine; Scala and Williams; cited from earlier work
# [5] = Table 4, photoheterotrophic, 2 mM PO4^3-, 10 W/m^2
# [6] = Table 4, photoheterotrophic, SMM succinate, 10 W/m^2
Compound,MIC Low-PO4^3- Medium [1],MIC Standard Medium [1],Resistance in words [1],Gas evolution in words [2],Reduction to elemental state [2],also measured
[O]=[Cr](=[O])=[O] [CrO3],< 10 mg/L,20 mg/L,–,–,–,MIC [1]: < 20 mg/L
[O-][I+3]([O-])([O-])O [IO4^-],–,–,resistance was shown,no gas evolution was observed,"Neither IO4^-, SiO3^2-, nor SiO^42- was reduced to its elemental state",Decrease in resistance when extracellular phosphate reduced ten-fold [1]: three- to four-fold; Intrinsic resistance relative to γ-3 Proteobacteria [1]: twenty-fold
O=[Te](=O)([O-])[O-].[K+].[K+] [K2 TeO4],500 mg/L,500 mg/L,High level resistance,Copious gas evolution,–,Relative toxicity [1]: SeO4^2- >TeO4^2- >TeO3^2- >SeO3^2- >Rh2 O3.5H2 O; Appearance of cells / metal deposit [2]: intracellular accumulation of a dense metal deposit; Intrinsic resistance relative to E. coli [3]: 40 times
[K+].[O]=[Mn](=[O])(=[O])[O-] [KMnO4],< 10 mg/L,20 mg/L,–,–,–,MIC [1]: < 20 mg/L
"N[C@@H](CS)C(=O)O [L-cysteine, reference compound]",–,–,–,–,–,Effect of medium supplement on HLR [1]: solely responsible for the increased sensitivity to TeO3^2-
"CSCC[C@H](N)C(=O)O [L-methionine, reference compound]",–,–,–,–,–,Effect of medium supplement on HLR [1]: no affect on HLR to TeO3^2-; TeO3^2- resistance enhancement by L-methionine [4]: two-fold
[O]=[Mo](=[O])=[O] [MoO3],sat'd sol'n,sat'd sol'n,shows resistance,–,–,Effect on cell growth as saturated solution [1]: did not affect cell growth
[NH4+].[O]=[V](=[O])[O-] [NH4 VO3],sat'd sol'n,sat'd sol'n,shows resistance,–,–,Effect on cell growth as saturated solution [1]: did not affect cell growth
[Na+].[Na+].[O]=[Cr](=[O])([O-])[O-] [Na2 CrO4],20 mg/L,10 mg/L,–,–,–,MIC [1]: < 20 mg/L
[Na+].[Na+].[O]=[Mo](=[O])([O-])[O-] [Na2 MoO4],–,–,resistance was shown,no gas was evolved,not reduced to their elemental states,"Effect of extracellular phosphate on resistance [1]: unaffected by extracellular phosphate levels; MIC Low-PO4^3- Medium [1, 5]: 1500 mg/L; MIC Standard Medium [1, 6]: 1400 mg/L"
O=S([O-])[O-].[Na+].[Na+] [Na2 SO3],500 mg/L,600 mg/L,resistance was shown,no gas was evolved,not reduced to their elemental states,Effect of extracellular phosphate on resistance [1]: unaffected by extracellular phosphate levels
O=[Se]([O-])[O-].[Na+].[Na+] [Na2 SeO3],500 mg/L,800 mg/L,High level resistance,–,–,Relative toxicity [1]: SeO4^2- >TeO4^2- >TeO3^2- >SeO3^2- >Rh2 O3.5H2 O; Appearance of cells / metal deposit [2]: bright red in color
O=[Se](=O)([O-])[O-].[Na+].[Na+] [Na2 SeO4],100 mg/L,150 mg/L,High level resistance,–,–,Relative toxicity [1]: SeO4^2- >TeO4^2- >TeO3^2- >SeO3^2- >Rh2 O3.5H2 O; Appearance of cells / metal deposit [2]: bright red in color
O=[Si]([O-])[O-].[Na+].[Na+] [Na2 SiO3],100 mg/L,400 mg/L,resistance was shown,no gas evolution was observed,"Neither IO4^-, SiO3^2-, nor SiO^42- was reduced to its elemental state",Decrease in resistance when extracellular phosphate reduced ten-fold [1]: three- to four-fold; Intrinsic resistance relative to γ-3 Proteobacteria [1]: twenty-fold
[Na+].[Na+].[O]=[W](=[O])([O-])[O-] [Na2 WO4],–,–,resistance was shown,no gas was evolved,not reduced to their elemental states,"Effect of extracellular phosphate on resistance [1]: unaffected by extracellular phosphate levels; MIC Low-PO4^3- Medium [1, 5]: 1600 mg/L; MIC Standard Medium [1, 6]: 1600 mg/L"
"O.O.O.O.O.[O]=[Rh][O][Rh]=[O] [Rh2 O3.5H2 O, rhodium sesquioxide]",sat'd sol'n,sat'd sol'n,High level resistance; also recorded: shows resistance,–,–,Effect on cell growth as saturated solution [1]: did not affect cell growth; Relative toxicity [1]: SeO4^2- >TeO4^2- >TeO3^2- >SeO3^2- >Rh2 O3.5H2 O; Appearance of cells / metal deposit [2]: grayish bronze
[O-2].[O-2].[O-2].[Sb+3].[Sb+3] [Sb2 O3],"sat,d sol'n",sat'd sol'n,shows resistance,–,–,Effect on cell growth as saturated solution [1]: did not affect cell growth
[O]=[Sn]=[O] [SnO2],sat'd sol'n,sat'd sol'n,shows resistance,–,–,Effect on cell growth as saturated solution [1]: did not affect cell growth
"N[C@@H](CSSC[C@H](N)C(=O)O)C(=O)O [cystine, reference compound]",–,–,–,–,–,"Effect of medium supplement on HLR [1]: Neither cystine, glutathione nor thioglycollate, however, decreased HLR"
"N[C@@H](CCC(=O)N[C@@H](CS)C(=O)NCC(=O)O)C(=O)O [glutathione, reference compound]",–,–,–,–,–,"Effect of medium supplement on HLR [1]: Neither cystine, glutathione nor thioglycollate, however, decreased HLR"
"O=C(O)CS [thioglycollate, reference compound]",–,–,–,–,–,"Effect of medium supplement on HLR [1]: Neither cystine, glutathione nor thioglycollate, however, decreased HLR"
Na2 HAsO4,–,–,resistance was shown,no gas was evolved,not reduced to their elemental states,"Effect of extracellular phosphate on resistance [1]: unaffected by extracellular phosphate levels; MIC Low-PO4^3- Medium [1, 5]: 1600 mg/L; MIC Standard Medium [1, 6]: 1500 mg/L"
Na2 SiO4,100 mg/L,300 mg/L,resistance was shown,no gas evolution was observed,"Neither IO4^-, SiO3^2-, nor SiO^42- was reduced to its elemental state",Decrease in resistance when extracellular phosphate reduced ten-fold [1]: three- to four-fold; Intrinsic resistance relative to γ-3 Proteobacteria [1]: twenty-fold
Na2 SnO4,800 mg/L,800 mg/L,resistance was shown,no gas was evolved,not reduced to their elemental states,Effect of extracellular phosphate on resistance [1]: unaffected by extracellular phosphate levels
NaSiO4,150 mg/L,400 mg/L,–,–,–,–
